Here are results for 19 substances from patent US9464106B2, “Oligonucleotides useful for detecting and analyzing nucleic acids of interest” (Exiqon A/S, priority 2002, dated 2016).

Marks after values point to notes of the source that are not given here. l = locked nucleic acid (LNA); [5mC] = 5-methylcytosine; d = 2'-deoxy (DNA) Some results are limits rather than exact numbers.

One series relates to yeast HSP78 (YDR258C) sequence. Description: Duplex melting temperatures of HSP78 25-mer capture probes (UV spectrophotometer). The note with it: 25-mer capture probe duplex with complementary target; design PM = perfectly matched, MM = single mismatch; DNA, LNA_T (T) or LNA_TC (TC) substituted.
In the case of “12817 (DNA ATAAAGCTGGCAATAGGTCTCTTTT; sugars from the 5' end dlddddllddlddldddllldllld, [5mC] at 7, 11, 19, backbone not given here; further chemistry not fully specified) [compound 12817]”, the “Average duplex melting temp.” value was determined as 81.2 °C.

For “12818 (DNA TTTTTCGGCCAAACGATCTTGAATT; sugars from the 5' end ldldllddlldddldddldldddld, all C 5-methyl, backbone not given here; further chemistry not fully specified) [compound 12818]”, the “Average duplex melting temp.” value is 77.8 °C.

As to “12819 (DNA CACTCTAACAGTTTCGCCGTTTCTA; sugars from the 5' end ldldldddldddldddlddldllld, [5mC] at 1, 3, 5, 9, 17, 23, backbone not given here; further chemistry not fully specified) [compound 12819]”, the “Average duplex melting temp.” value amounted to 81.9 °C.

With “12820 (DNA TCAATGGCCTTGCACCATATAATTG; sugars from the 5' end llddlddldlldlddldldlddlld, [5mC] at 2, 8, 13, 16, backbone not given here; further chemistry not fully specified) [compound 12820]”, the “Average duplex melting temp.” value worked out at 83.5 °C.

As for “12821 (DNA AAAACGACAGCATAAGGCTTTCTTC; sugars from the 5' end ddddlddlddldlddddlldlldld, [5mC] at 5, 8, 11, 18, 22, backbone not given here; further chemistry not fully specified) [compound 12821]”, the “Average duplex melting temp.” value came to 79 °C.

For “12822 (DNA ATTGACCTCAAAACTTTCTTGGATA; sugars from the 5' end dllddllllddddllldllldddld, all C 5-methyl, backbone not given here; further chemistry not fully specified) [compound 12822]”, the “Average duplex melting temp.” value was 75.6 °C.

Take “12823 (DNA CCCAACTTTGTGTCGTTTAATAAAA; sugars from the 5' end llldddllddldlddlllddldddd, [5mC] at 1, 2, 3, backbone not given here; further chemistry not fully specified) [compound 12823]”: the “Average duplex melting temp.” value is 74.8 °C.

The subject of the next series is complementary single stranded DNA (3′-ctgNatcc). The experiment in a line: Melting temperatures of DNA and LNA 8-mers containing inosine, 2,6-diaminopurine or 2-aminopurine against complementary DNA. The class given is binding. The note with it: duplex 2.5 μM; 0.1M NaCl; 10 mM Na-phosphate (pH 7.0); 1 mM EDTA.
Regarding 5′-GACATAGG [Entry 8], the “Tm of the duplex with 3′-ctgaatcc” value turned out to be 38.2 °C, the “Tm of the duplex with 3′-ctgcatcc” value came out at 40.6 °C, the “Tm of the duplex with 3′-ctggatcc” value worked out at 43.4 °C and the “Tm of the duplex with 3′-ctgtatcc” value was 61.6 °C.

For the substance 5′-GACDTAGG [Entry 11], the “Tm of the duplex with 3′-ctgaatcc” value stood at 42.2 °C, the “Tm of the duplex with 3′-ctgcatcc” value is 52.4 °C, the “Tm of the duplex with 3′-ctggatcc” value worked out at 41.4 °C and the “Tm of the duplex with 3′-ctgtatcc” value was determined as 67.8 °C.

In the case of 5′-GACGTAGG [Entry 10], the “Tm of the duplex with 3′-ctgaatcc” value is 32^b ° C, the “Tm of the duplex with 3′-ctgcatcc” value amounted to 70.9 °C, the “Tm of the duplex with 3′-ctggatcc” value was 41^b ° C and the “Tm of the duplex with 3′-ctgtatcc” value stood at 55.0 °C.

In the case of 5′-GACITAGG [Entry 13], the “Tm of the duplex with 3′-ctgaatcc” value turned out to be 48.2 °C, the “Tm of the duplex with 3′-ctgcatcc” value amounted to 59.9 °C, the “Tm of the duplex with 3′-ctggatcc” value was 43.0 °C and the “Tm of the duplex with 3′-ctgtatcc” value is 53.1 °C.

As for 5′-GACTTAGG [Entry 9], the “Tm of the duplex with 3′-ctgaatcc” value is 60.7 °C, the “Tm of the duplex with 3′-ctgcatcc” value is 23.5 °C, the “Tm of the duplex with 3′-ctggatcc” value is 36.4 °C and the “Tm of the duplex with 3′-ctgtatcc” value is 28.0 °C.

For 5′-GDCDTDGG [Entry 12], the “Tm of the duplex with 3′-ctgaatcc” value came to 55.9 °C, the “Tm of the duplex with 3′-ctgcatcc” value stood at 63.8 °C, the “Tm of the duplex with 3′-ctggatcc” value worked out at 54.7 °C and the “Tm of the duplex with 3′-ctgtatcc” value turned out to be 78.3 °C.

With “5′-gacatagg [Entry 1, reference compound]”, the “Tm of the duplex with 3′-ctgaatcc” value is <10 °C, the “Tm of the duplex with 3′-ctgcatcc” value was <10 °C, the “Tm of the duplex with 3′-ctggatcc” value was <10 °C and the “Tm of the duplex with 3′-ctgtatcc” value came to 23.8 °C.

In the case of “5′-gacdtagg [Entry 4, reference compound]”, the “Tm of the duplex with 3′-ctgaatcc” value is <10 °C, the “Tm of the duplex with 3′-ctgcatcc” value is <10 °C, the “Tm of the duplex with 3′-ctggatcc” value is <10 °C and the “Tm of the duplex with 3′-ctgtatcc” value was determined as 23.3 °C.

Consider “5′-gacgtagg [Entry 3, reference compound]”, for which the “Tm of the duplex with 3′-ctgaatcc” value is <10 °C, the “Tm of the duplex with 3′-ctgcatcc” value is 25.0 °C, the “Tm of the duplex with 3′-ctggatcc” value is <10 °C and the “Tm of the duplex with 3′-ctgtatcc” value was <10 °C.

For the substance “5′-gacitagg [Entry 6, reference compound]”, the “Tm of the duplex with 3′-ctgaatcc” value was <10 °C, the “Tm of the duplex with 3′-ctgcatcc” value amounted to 20.9 °C, the “Tm of the duplex with 3′-ctggatcc” value is <10 °C and the “Tm of the duplex with 3′-ctgtatcc” value was <10 °C.

“5′-gacttagg [Entry 2, reference compound]”: the “Tm of the duplex with 3′-ctgaatcc” value came to 22.6 °C, the “Tm of the duplex with 3′-ctgcatcc” value is <10 °C, the “Tm of the duplex with 3′-ctggatcc” value is <10 °C and the “Tm of the duplex with 3′-ctgtatcc” value was <10 °C.

The series is the same for the next values; noted with them: entries 1 and 4.
Turning to “5′-gacdtagg [Entry 4, reference compound]”, the “destabilization of the duplex on analogous replacement in a DNA octamer” value stood at 0.5 °C.

Staying with this series, now noted: entries 8 and 11.
For the substance “(1R,3R,4R,7S)-7-(2-Cyanoethoxy(diisopropylamino)phosphinoxy)-1-(4,4′-dimethoxytrityloxymethyl)-3-(hyroxanthin-9-yl)-dioxabicyclo[2.2.1]heptane [compound 11]”, the “stabilization of the complementary duplex on replacement of one internal LNA-A by LNA-D” value was 6.2 °C.
